A melting point compilation (Tetko et al.; mined from patent text by program, amines drawn as free bases though some values may be those of a salt)

Compound | melting point [°C]
N#Cc1cn(Nc2c(Cl)cc(Cl)cc2Cl)c(=O)[nH]c1=O | > 320
OC(CCc1cccnc1)COc1ccc2ccccc2c1 (configuration not stated) | 93 to 95
O=C(NC1CCOC1=O)c1cc2c(n(CC3CCCCC3)c1=O)CCCCCC2 (configuration not stated) | 136 to 140
CCC(CC)COC(=O)c1ccc(N)cc1 | 52 to 53
C=CCSc1nc2cc(C)c(C)cc2[nH]1 | 119 to 120
Nc1ccc(C(=O)Nc2ccc(N)cc2Cl)cc1 | 194 to 197
CCOC(=O)/C=C/c1cc(Br)ccc1N(C)Cc1cnn(C)c1 | 67 to 68
COC12CC(C3(c4cncc(Br)c4)N=NCS3)CN(C)C1Cc1cn(C)c3cccc2c13 (configuration not stated) | 131 to 137
COC(=O)c1ccc(N2CCNCC2)cc1 | 95 to 97
S=c1cc(N2CCOCC2)ss1 | 60
O=S(=O)(c1ccc(F)cc1)C(F)(F)C(F)(F)C(F)(F)C(F)(F)S(=O)(=O)c1ccc(F)cc1 | 126 to 127
Cc1cccc2nc3sccn3c(=O)c12 | 148 to 150
O=C(c1ccncc1)[N+]1([O-])CCC(=C2c3ccccc3CCn3ccnc32)CC1 (configuration not stated) | 155 to 159
OCCOc1ccc(C2=NCCO2)cc1 | 149 to 150
CCn1c(N)c(C(N)=O)c(=O)c2ccc(-c3ccncc3)cc21 | > 300
CONS(=O)(=O)c1c(C)nn(C)c1Cl | 120 to 122
CCCCOC1(N)C=CC(NC(=O)CBr)=CC1 (configuration not stated) | 131 to 134

The next lines start with the values.

melting point [°C] | Compound
169 to 171 | COc1cc(N)c(Cl)cc1C(=O)NC1CN(C)N(C)C1
132 | CN(c1ccc(Cl)cc1)S(=O)(=O)c1cn(S(=O)(=O)N(C)C)cn1
148 | CS/C=C(/C)n1c(=O)n(Cc2cc(C(F)(F)F)cc(C(F)(F)F)c2)c2ccccc21
63 to 65 | COc1c(CO)cccc1Oc1ccccc1C
214 | Fc1cccc(F)c1-c1nnc(-c2c(F)cccc2F)nn1
115 to 118 | Fc1ccc(C(=C(c2ccccc2)c2ccc(OCCBr)cc2)C(F)(F)F)cc1
85 to 86 | CC(C)Cc1nn(C)c(=O)c2cc(Cc3c(F)cccc3Cl)sc12
118 to 119 | COc1cc(CCC(=O)CC(=O)c2ccc(-c3ccccc3)cc2)ccc1O
155 to 159 | COc1cc(C(O)C(CO)[N+](=O)[O-])cc(OC)c1OC (configuration not stated)
126 to 130 | C=C=Cn1[nH]c2ccccc2c1=O
220 to 222 | COC(=O)c1ccc(C(=O)NS(=O)(=O)c2ccc(C(=O)NCCc3ccccc3OC)cc2)cn1
131 to 132 | COc1ccc(C=CC(=O)c2c(OC)cc(OC)cc2OC(=O)CCCC(=O)O)cc1
276 to 277 | CCn1cc(C(=O)O)c(=O)c2cc(F)c(N3CCN(S(=O)(=O)c4ccc(NC(C)=O)cc4)CC3)c(F)c21
116 to 118 | CCCN(CCC)CC(=O)OC1CC2(C)C(C(C)=O)CCC2C2CCC3CC(O)CCC3(C)C12 (configuration not stated)
97 | Cn1nnc(-c2cccc(N)c2)n1
191 to 193 | CC(=O)C(Cc1nsc2ccc(-n3c(=O)cc(C(F)(F)F)n(C)c3=O)cc12)C(=O)O (configuration not stated)
36 to 37 | CCOc1cccc(C(C)=O)n1
215 | CCCCc1nc(Sc2ccccc2)c(CO)n1Cc1ccc(-c2ccccc2C(=O)O)cc1
81 to 82 | Cc1cc2c(cc1C(=O)CO)C(C)(C)CC(C)C2(C)C (configuration not stated)
175 | CCOC(=O)CCCN1CCn2nc(C(=O)O)cc2C1=O
360 | CC(C)(NC1=NS(=O)(=O)c2sc(Cl)cc2N1)c1ccccc1
131 to 132 | O=C(Nc1nc(-c2ccco2)c(C(=O)C2CCOCC2)s1)c1ccc(F)cc1
100 to 101 | CCOC(=O)C=CC=Cc1cccc([N+](=O)[O-])c1
85 to 86 | Cc1ccc(CN(CCCC(N)=O)Cc2ccc(C)cc2)cc1
125 to 126 | C=CCN1CCCNC1=C[N+](=O)[O-]
